Like-named read-outs stand apart in the source and are kept apart here.
Columns and labels:
[1] = tested on: human umbilical vein endothelial cell (HUVEC); experiment: HUVEC proliferation (3H-thymidine incorporation); type: cell-based; conditions: for IC50: Homo sapiens, HUVEC, read-out: IC50 in Cells HUVEC
Protocol: (§4) Primary human umbilical vein endothelial cells (HUVEC) were purchased from CLONETICS Inc. (San Diego, CA) and used at passage 2 to 3. Proliferation was measured using ^3H-thymidine incorporation in cells by pulsing twenty-four hours prior to harvesting cell cultures. The human breast carcinoma line H3396 was used to assess activity of compound on tumor cells. Cells (2 x 10^3) were plated on collagen IV coated 96 well plates. Twenty-four hours later, compounds were added at varying concentrations. After 48 hours, ^3H-thymidine was added and cells were allowed to incorporate this label over a twenty-four hour period. Cellular extracts were harvested onto glass filters and incorporated radioactivity was determined by counting in a Beta scintillation counter. The IC50, defined as the drug concentration that causes 50% inhibition of ^3H-thymidine incorporation, was extrapolated from the plotted data.

HUVEC = experiment: In vitro HUVEC tube formation on […]; type: cell-based, human; design: key: C= complete; P= partial
Protocol: Angiogenesis results in a network of functional blood vessels that contain red blood cells. In vitro assays that, in part, mimic that process have been established. Primary endothelial cells such as HUVEC when placed on […] (Collaborative Research, Inc.) form a three-dimensional network of tubes that align into cords. In this assay system, tube formation was evaluated on an extracellular protein matrix consisting of […] diluted 1:1 with culture media (EBM-2; CLONETICS, Inc.) and allowed to polymerize for 60 minutes at 37 C. […] Eighteen hours following the plating of cells, the media was removed and cultures were fixed in formalin. Inhibition of tubes on […] is evaluated on an inverted microscope using phase contrast lighting. To determine the effect of compounds in this assay, a descriptive approach was developed. […] Partial inhibition is defined as an incomplete network with a large number of single cells. Complete inhibition is defined as greater than 99% of cells occurring as single cells with no elongated or branching structures. The number of single cells occurring after vehicle treatment (control) is subtracted from the total number of single cells occurring in the treated groups prior to assessing the effects of test compounds for establishing background effects.

[2] = In vivo […] plug angiogenesis model (number of endothelial cells in plugs); design: species or system athymic (nu/nu) Balb/c mice; conditions: mouse, in vivo, read-out: maximum tolerated dose (MTD)
Protocol: (§1) LX1 human lung tumor fragments that were maintained by serial subcutaneous passage in athymic (nu/nu) Balb/c mice were implanted subcutaneously as small fragments approximately 0.1 mm^3 in size. Tumor volume doubling time for this tumor in these studies was 2.8 days. When tumors reached the size range of 150-200 mm^3, liquid […] was injected subcutaneously on the side contralateral to the tumor. Treatment was initiated 24 hours later at varying doses and schedules. Prior to implanting, […] is prepared by placing solidified […] on ice overnight at 4 C in accordance with the method described by Passiniti et al. (Lab. Invest. 1992 67:519-28). At the liquid phase and while on ice, VEGF and bFGF (Peprotech, Inc. Rocky Hill, NJ) is added to the […] at final respective concentrations of 75 ng/ml and 300 ng/ml. Stock solutions of these growth factors are made fresh at […] in PBS. Twenty-four hours following final treatment, animals were sacrificed by cervical dislocation and […] plugs from treated and control animals were excised and fixed for at least 48 hours in 10% neutral buffered formalin. These plugs were then processed for paraffin embedding and sectioned at 5 µm thickness followed by staining with hematoxylin and eosin prior to quantitative analysis. The number of endothelial cells in plugs was quantitated using the IMAGEPRO PLUS software (Media Cybernetics, Inc., Silver Spring, MD) at a magnification of 20x. Fifty fields of view from each plug were used for counting the number of endothelial cells. The number of cells were summarized and compared statistically to controls.
(§2) Angiogenesis is evaluated in these plugs as the number of endothelial cells migrating into plugs from compound treated groups relative to the vehicle treated group. Tumors were implanted for the purpose of monitoring the anti-tumor effects of these compounds throughout these studies in order to assure compound efficacy at the therapeutic doses.
(§3) For TAXOL, normal saline was used as the diluent and delivery was made intravenously. For the oral taxane of Formula I, sterilized water was used as the diluent and delivery was by oral gavage.

[3] = tested on: endothelial cells occurring in MATRIGEL plugs; experiment: as above; design: species or system athymic (nu/nu) Balb/c mice; conditions: q2dx5; for reduction of cell number in plugs: oral gavage
Protocol: as §1, §2, §3

[4] = tested on: human breast carcinoma line H3396; experiment: H3396 tumor cell proliferation (3H-thymidine incorporation); type: cell-based
Protocol: as §4

[5] = Oral bioavailability in the rat; type: in vivo
[6] = Oral bioavailability in the dog; type: in vivo
[7] = tested on: mammary 16/C murine carcinoma; experiment: Staged subcutaneous mammary 16/C carcinoma in mice, gross log cell kill; type: in vivo, C3H mice
Description: The final concentrations of each component of the vehicle was as follows: CREMOPHOR 10%; ethanol 10%; aqueous 80%.
C3H conventional mice were purchased from Harlan-Sprague Dawley (Indianapolis, IN) and fed mouse chow and water ad libitum.
The metastatic mammary 16/C murine carcinoma was propagated biweekly in C3H mice. Experiments were initiated by subcutaneous insertion by trocar of tumor fragments.
For in vivo tumor testing, the C3H mice were implanted subcutaneously with mammary 16/C tumor fragments. All treatments were initiated on Day 10 post-tumor implant, except for an untreated control group. All groups contained 8 mice. Tumors were measured once or twice weekly and dimensions were converted to weights using the formula Weight (milligrams)= a x b^2, where a=length and b=width (in millimeters). The median time for tumors within each group of mice to reach 1 gram was determined and the delays in median time to reach 1 gram tumor target size for treated (T) versus control (C) groups was calculated. These delays in tumor growth (T-C value in days) were further converted to gross log cell kill (LCK) values using the formula T-C/(tumor volume doubling time, TVDT, of the control group) x (3.32). A LCK of greater than or equal to 1 LCK was considered an active result. Cures were assessed at the end of each experiment and defined in the absence of a tumor mass of greater than 35 milligrams. Experiments were terminated more than 10 x TVDT following the completion of all treatments.

Description for L2987 human lung tumor: L2987 human lung tumors were implanted and allowed to reach 50 to 100 mm^3 before drug administration.

COC(=O)O[C@@]12CO[C@@H]1C[C@H](O)[C@@]1(C)C(=O)[C@H](OC(C)=O)C3=C(C)[C@@H](OC(=O)[C@H](O)[C@@H](NC(=O)OC(C)(C)C)C(C)(C)C)C[C@@](O)([C@@H](OC(=O)c4ccccc4)[C@H]21)C3(C)C [Formula I, 3'-tert-Butyl-3'-N-tert-butyloxycarbonyl-4-deacetyl-3'-dephenyl-3'-N-debenzoyl-4-O-methoxycarbonyl-paclitaxel]
IC50 [1]: 2 nM | Inhibition of HUVEC Tube Formation on MATRIGEL (HUVEC; 0.0005µM): P | Inhibition of HUVEC Tube Formation on MATRIGEL (HUVEC; 0.0050µM): P | Inhibition of HUVEC Tube Formation on MATRIGEL (HUVEC; 0.0500µM): C | Inhibition of HUVEC Tube Formation on MATRIGEL (HUVEC; 0.5000µM): C | Inhibition of HUVEC Tube Formation on MATRIGEL (HUVEC; 5.000µM): C | MTD ([2]; po): 60 mg/kg | reduction of cell number in plugs ([3]; 18 mg/kg): greater than 50% | reduction of cell number in plugs ([3]; 36 mg/kg): greater than 50% | reduction of cell number in plugs ([3]; 60 mg/kg (MTD)): greater than 50% | weight loss (L2987 human lung tumor; 20 mg/kg orally, metronomic schedule q2dx15): no weight loss was observed | tumor growth (L2987 human lung tumor; 20 mg/kg orally, metronomic schedule q2dx15 (cumulative 300 mg/kg)): suppressed tumor growth | weight loss (L2987 human lung tumor; 60 mg/kg orally, standard schedule q2dx5): weight loss was also observed | anti-tumor response (L2987 human lung tumor; 60 mg/kg orally, standard schedule q2dx5 (cumulative 300 mg/kg), compared with metronomic regime): greater anti-tumor response | IC50 ([4]; H3396, read-out: IC50 in Cells H3396, 3H-thymidine incorporation, two separate experiments (two columns)): 2 nM | oral bioavailability [5]: good | oral bioavailability [6]: good

CC(=O)O[C@H]1C(=O)[C@@]2(C)[C@H]([C@H](OC(=O)c3ccccc3)[C@]3(O)C[C@H](OC(=O)[C@H](O)[C@@H](NC(=O)c4ccccc4)c4ccccc4)C(C)=C1C3(C)C)[C@]1(OC(C)=O)CO[C@@H]1C[C@@H]2O [TAXOL, paclitaxel]
IC50 ([1]; 3H-thymidine incorporation, two separate experiments (two columns)): 3 nM | H3396/HUVEC ([1]; ratio of IC50 in H3396 to IC50 in HUVEC): 0.88 | Inhibition of HUVEC Tube Formation on MATRIGEL (HUVEC; 0.0005µM): P | Inhibition of HUVEC Tube Formation on MATRIGEL (HUVEC; 0.0050µM): P | Inhibition of HUVEC Tube Formation on MATRIGEL (HUVEC; 0.0500µM): C | Inhibition of HUVEC Tube Formation on MATRIGEL (HUVEC; 0.5000µM): C | Inhibition of HUVEC Tube Formation on MATRIGEL (HUVEC; 5.000µM): C | Gross LCK ([7]; Paclitaxel 20 mg/kg/inj qd 10-14 iv, no Formula I, Paclitaxel 20 mg/kg/inj qd 32-36 iv): 4.5 | Gross LCK ([7]; Paclitaxel 20 mg/kg/inj qd 10-14 iv, no Formula I, Paclitaxel 30 mg/kg/inj qd 32-36 iv): 4.7 | Gross LCK ([7]; Paclitaxel 30 mg/kg/inj qd 10-14 iv alone (single course)): 1.9 | cures/total ([7]; Paclitaxel 30 mg/kg/inj qd 10-14 iv alone, Cures assessed on Day 60): 2/8 | Gross LCK ([7]; Paclitaxel 45 mg/kg/inj qd 10-14 iv alone (single course)): 1.9 | cures/total ([7]; Paclitaxel 45 mg/kg/inj qd 10-14 iv alone, Cures assessed on Day 60 post tumor implant): 1/8 | cures/total ([7]; Paclitaxel 20 qd 10-14 iv, no Formula I, Paclitaxel 30 qd 32-36 iv, Cures assessed on Day 88): 1/8 | cures/total ([7]; Paclitaxel 30 qd 10-14 iv, no Formula I, Paclitaxel 30 qd 32-36 iv, Cures assessed on Day 88 post-tumor implant, listed as Paclitaxel): 2/8 | cures/total ([7]; Paclitaxel 30 qd 10-14 iv, no Formula I, Paclitaxel 30 qd 32-36 iv, Cures assessed on Day 88 post-tumor implant, listed as paclitaxel): 2 of 8 | MTD regimen ([7]; qdx5, iv, beginning on Day 10 post-tumor implant): 45 mg/kg/injection | MTD ([2]; athymic (nu/nu) Balb/c, intravenous): 24 mg/kg | reduction in cell number in MATRIGEL plugs compared to control groups ([3]; 24 mg/kg (MTD), intravenously): greater than 50% | IC50 ([4]; H3396, 3H-thymidine incorporation, two separate experiments (two columns), read-out: IC50 in Cells H3396): 3 nM

— EP1372636B1, “METRONOMIC DOSING OF TAXANES FOR INHIBITING TUMOR GROWTH” (Bristol-Myers Squibb Company, priority 2001, dated 2002)
